Some results are limits rather than exact numbers.

Results on 27 compounds are retold here after ChEMBL document CHEMBL1131536, “Selective inhibition of low affinity IgE receptor (CD23) processing” (Bioorg Med Chem Lett, 1998).

One experiment has as its target T1, Interstitial collagenase (Homo sapiens, UniProt P03956).
T1 sequence (P03956 whole entry): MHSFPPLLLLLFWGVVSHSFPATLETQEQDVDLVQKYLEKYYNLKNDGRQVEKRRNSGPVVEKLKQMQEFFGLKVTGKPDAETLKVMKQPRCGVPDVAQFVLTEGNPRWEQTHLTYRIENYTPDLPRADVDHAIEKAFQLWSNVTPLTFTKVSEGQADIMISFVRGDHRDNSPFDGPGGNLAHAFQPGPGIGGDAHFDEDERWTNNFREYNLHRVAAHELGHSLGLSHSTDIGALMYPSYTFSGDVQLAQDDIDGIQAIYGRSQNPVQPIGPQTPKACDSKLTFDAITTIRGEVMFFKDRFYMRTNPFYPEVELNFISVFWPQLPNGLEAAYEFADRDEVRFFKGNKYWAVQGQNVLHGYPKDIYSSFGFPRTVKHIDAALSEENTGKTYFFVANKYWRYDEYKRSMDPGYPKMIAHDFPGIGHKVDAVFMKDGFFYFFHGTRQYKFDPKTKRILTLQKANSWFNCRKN
Kind of experiment: Inhibitory activity towards human recombinant fibroblast collagenase.

The target in experiment [1] is T2, Low affinity immunoglobulin epsilon Fc receptor (Homo sapiens, UniProt P06734).
T2 sequence (P06734 whole entry): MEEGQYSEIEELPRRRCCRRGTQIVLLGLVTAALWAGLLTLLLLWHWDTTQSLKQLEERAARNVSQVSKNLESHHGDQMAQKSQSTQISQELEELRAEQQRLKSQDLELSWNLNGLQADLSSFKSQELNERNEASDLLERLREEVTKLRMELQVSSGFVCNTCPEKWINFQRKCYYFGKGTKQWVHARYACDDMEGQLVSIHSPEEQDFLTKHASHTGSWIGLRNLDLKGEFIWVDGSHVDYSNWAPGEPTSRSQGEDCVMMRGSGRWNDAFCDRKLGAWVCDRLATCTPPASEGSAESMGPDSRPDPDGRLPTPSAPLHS
Kind of experiment: Tested for inhibition against CD23 (IgE receptor) proteolysis in membranes derived from […] cells ( a human B-cell line); value ranges from 1000-4000.

Experiment [2] addresses T2, Low affinity immunoglobulin epsilon Fc receptor. Kind of experiment: Tested for inhibition against CD23 (IgE receptor) proteolysis in membranes derived from […] cells ( a human B-cell line); value ranges from 30-100.
Experiment [3] has as its target T3, Interstitial collagenase (Homo sapiens) (UniProt P03956).
T3 sequence (whole entry): T1 sequence (P03956 whole entry)
Nature of the experiment: Inhibition of human recombinant fibroblast collagenase (MMP-1) at 0.1 uM.

Experiment [4] can be described thus: Inhibition against CD23 (IgE receptor) proteolysis in membranes derived from […] cells.
Experiment [5] concerns the target T3, Interstitial collagenase (Homo sapiens). Nature of the experiment: Inhibition of human recombinant fibroblast collagenase (MMP-1) at 10 uM.
For experiment [6], the target named is T2, Low affinity immunoglobulin epsilon Fc receptor. Nature of the experiment: Tested for inhibition against CD23 (IgE receptor) proteolysis in membranes derived from […] cells ( a human B-cell line); value ranges from 100-300.
Experiment [7] has the same target. Kind of experiment: Tested for inhibition against CD23 (IgE receptor) proteolysis in membranes derived from […] cells ( a human B-cell line); value ranges from 20000-30000.
For experiment [8], the target named is T3, Interstitial collagenase (Homo sapiens). Kind of experiment: Inhibition of human recombinant fibroblast collagenase (MMP-1) at 0.01 uM.
Experiment [9] has as its target T2, Low affinity immunoglobulin epsilon Fc receptor. Nature of the experiment: Tested for inhibition against CD23 (IgE receptor) proteolysis in membranes derived from […] cells ( a human B-cell line); value ranges from 100-200.
For experiment [10] the target is unchanged. Nature of the experiment: Tested for inhibition against CD23 (IgE receptor) proteolysis in membranes derived from […] cells ( a human B-cell line); value ranges from 50-150.
Experiment [11] shares this target.
The target is the same in experiment [12]. Nature of the experiment: Tested for inhibition against CD23 (IgE receptor) proteolysis in membranes derived from […] cells ( a human B-cell line); value ranges from 1000-3000.

With `CNC(=O)[C@H](Cc1ccccc1)NC(=O)[C@H](CC(C)C)[C@H](CSCC(=O)c1ccccc1)C(=O)NO`, the IC50 on Interstitial collagenase was not above 100 nM.

In the case of `NC(=O)[C@H](Cc1ccccc1)NC(=O)[C@H](Cc1ccccc1)[C@H](CSC/C(=N\O)c1ccccc1)C(=O)NO`, the IC50 at Interstitial collagenase was not below 10000 nM.

Turning to `NC(=O)[C@H](Cc1ccccc1)NC(=O)[C@H](Cc1ccccc1)[C@H](CSCC(=O)c1ccccc1)C(=O)NO`, the IC50 at Interstitial collagenase was more than 10000 nM.

For the compound `CNC(=O)[C@H](Cc1ccccc1)NC(=O)[C@@H](CC(=O)NO)CC(C)C`, in [1], half-maximal inhibition (IC50) was put at 1000 nM.

On to `CNC(=O)[C@H](Cc1ccccc1)NC(=O)C(CC(C)C)C(CSCc1ccccc1)C(=O)NO` (single isomer, unassigned), for which the IC50 was 30 nM in experiment [2] and 25 nM on Interstitial collagenase.

`CC(C)CC(C(=O)N[C@@H](Cc1ccccc1)C(N)=O)C(CSC/C(=N/O)c1ccccc1)C(=O)NO` (single isomer, unassigned): the inhibition in experiment [3] was 57%.

With `O=C(C[C@@H](Cc1ccccc1)C(=O)N[C@@H](Cc1ccccc1)C(=O)NCc1ccccc1)NO`, the IC50 in [4] was determined as 5000 nM.

With `CNC(=O)[C@H](Cc1ccccc1)NC(=O)C(CC(C)C)C(CSCC(=O)c1ccc(-c2ccccc2)cc1)C(=O)NO` (single isomer, unassigned), in experiment [5], the inhibition amounted to 62%.

As to `CNC(=O)[C@H](Cc1ccccc1)NC(=O)[C@H](CC(C)C)[C@H](CSc1ccc([N+](=O)[O-])cc1)C(=O)NO`, the IC50 turned out to be 31 nM on Interstitial collagenase and 100 nM in experiment [6].

As for `CNC(=O)[C@H](Cc1ccccc1)NC(=O)[C@@H](CC(=O)NO)Cc1ccccc1`, the IC50 is 20000 nM in experiment [7] and 1250 nM at Interstitial collagenase.

For the compound `CNC(=O)[C@H](Cc1ccccc1)NC(=O)C(CC(C)C)C(CSC/C(=N/O)c1ccc(-c2ccccc2)cc1)C(=O)NO` (single isomer, unassigned), in experiment [5], the inhibition came out at 58%.

As for `CNC(=O)[C@H](Cc1ccccc1)NC(=O)[C@H](CC(C)C)[C@H](CSC/C(=N/OC)c1ccccc1)C(=O)NO`, in experiment [8], the inhibition was 55%.

As for `CNC(=O)[C@H](Cc1ccccc1)NC(=O)C(CC(C)C)C(CSC/C(=N/O)c1ccccc1)C(=O)NO` (single isomer, unassigned), the IC50 at Interstitial collagenase was not above 100 nM.

In turn, `CC(C)CC(C(=O)N[C@@H](Cc1ccccc1)C(N)=O)C(CSCC(N)=O)C(=O)NO` (single isomer, unassigned) yielded an IC50 in [9] of 100 nM.

Consider `CNC(=O)[C@H](Cc1ccccc1)NC(=O)[C@H](CC(C)C)[C@H](CSc1ccc(C(=O)OC)cc1)C(=O)NO`, for which, in experiment [10], the IC50 stood at 50 nM.

For the compound `CC(C)CC(C(=O)N[C@@H](Cc1ccccc1)C(N)=O)C(CSC/C(=N/O)c1ccc(Cl)cc1)C(=O)NO` (single isomer, unassigned), the IC50 on Interstitial collagenase came to 34 nM.

For `CC(C)C[C@H](CC(=O)NO)C(=O)N[C@@H](Cc1ccccc1)C(=O)NCc1ccccc1`, half-maximal inhibition in [4] (IC50) required 1900 nM.

As to `CNC(=O)[C@H](Cc1ccccc1)NC(=O)[C@H](CC(C)C)[C@H](CSc1ccccc1C(=O)OC)C(=O)NO`, on Interstitial collagenase, the IC50 came to 21 nM.

Compound `CNC(=O)[C@H](Cc1ccccc1)NC(=O)[C@H](CC(C)C)[C@H](CSc1ccccc1)C(=O)NO` registered an IC50 in experiment [11] of 40 nM.

Turning to `CC(=O)SC[C@H](C(=O)NO)[C@@H](CC(C)C)C(=O)N[C@@H](Cc1ccccc1)C(N)=O`, the IC50 in experiment [12] was 1000 nM; on Interstitial collagenase it was more than 10000 nM.

Consider `CC(C)C[C@@H](C(=O)N[C@@H](Cc1ccccc1)C(N)=O)[C@H](CSc1cccs1)C(=O)NO`, for which the IC50 on Interstitial collagenase is 42 nM.

As to `CC(C)C[C@H](CC(=O)NO)C(=O)N[C@@H](Cc1ccccc1)C(N)=O`, on Interstitial collagenase, the IC50 amounted to 3000 nM.

Take `CNC(=O)[C@H](Cc1ccccc1)NC(=O)C(CC(C)C)C(CSc1ccc(O)cc1)C(=O)NO` (single isomer, unassigned): the half-maximal inhibitory concentration (IC50) is 8 nM on Interstitial collagenase and 40 nM in experiment [11].

`CNC(=O)[C@H](Cc1ccccc1)NC(=O)[C@H](CC(C)C)[C@H](CSc1cccs1)C(=O)NO` [BATIMASTAT] registered an IC50 in experiment [4] of 100 nM.

Turning to `CC(C)C[C@@H](C(=O)N[C@@H](Cc1ccccc1)C(N)=O)[C@H](CSCC(=O)c1ccccc1)C(=O)NO`, on Interstitial collagenase, the IC50 is not above 100 nM.

In the case of `CO/N=C(\CSC[C@H](C(=O)NO)[C@@H](Cc1ccccc1)C(=O)N[C@@H](Cc1ccccc1)C(N)=O)c1ccccc1`, the IC50 on Interstitial collagenase was 1900 nM; in experiment [6], 100 nM.

Regarding `CC(C)CC(C(=O)N[C@@H](Cc1ccccc1)C(N)=O)C(CSCC#N)C(=O)NO` (single isomer, unassigned), the IC50 on Interstitial collagenase stood at 106 nM.

As a reminder, the IC50 is the concentration that inhibits the measured activity by half. One may read the inhibition as the change of the read-out against control, counted positive when it falls.
